According to ChEMBL document CHEMBL5506069, “A Unique Hybridization Route to Access Hydrazylnaphthalimidols as Novel Structural Scaffolds of Multitargeting Broad-Spectrum Antifungal Candidates” (J Med Chem, 2024):
≈ marks a conversion by molar mass, not a printed value. Calls of active or inactive are those of the source. The rule behind the calls is not given here.

Legend:
Candida albicans [1] = assay: Antifungal activity against Candida albicans measured after at 14 passages; assay type: functional, organism-based
Candida albicans [2] = assay: Antifungal activity against Candida albicans assessed as reduction in metabolic activity by measuring fluorescence intensity at 0.5 to 8 times MIC measured for 6 hrs by alamar blue staining based analysis; assay type: functional, organism-based
Candida albicans [3] = assay: Induction of morphological changes in Candida albicans assessed as appearance of oval shape by SEM analysis; assay type: functional, organism-based
Candida albicans [4] = assay: Antifungal activity against Candida albicans assessed as reduction in metabolic activity by measuring fluorescence intensity measured for 6 hrs by alamar blue staining based analysis; assay type: functional, organism-based
Erythrocyte [5] = assay: Hemolytic activity in RBC (unknown origin) assessed as appearance of smooth surface at 128 times MIC measured for 6 hrs by microscopic analysis; assay type: toxicity, cell-based
Albumin [6] = target: T1, Albumin (Homo sapiens, UniProt P02768); assay: Binding affinity to human serum albumin assessed as Stem-Volmer quenching constant at 310K at pH 7.4 by fluorescence based analysis
T1 sequence (P02768 whole entry): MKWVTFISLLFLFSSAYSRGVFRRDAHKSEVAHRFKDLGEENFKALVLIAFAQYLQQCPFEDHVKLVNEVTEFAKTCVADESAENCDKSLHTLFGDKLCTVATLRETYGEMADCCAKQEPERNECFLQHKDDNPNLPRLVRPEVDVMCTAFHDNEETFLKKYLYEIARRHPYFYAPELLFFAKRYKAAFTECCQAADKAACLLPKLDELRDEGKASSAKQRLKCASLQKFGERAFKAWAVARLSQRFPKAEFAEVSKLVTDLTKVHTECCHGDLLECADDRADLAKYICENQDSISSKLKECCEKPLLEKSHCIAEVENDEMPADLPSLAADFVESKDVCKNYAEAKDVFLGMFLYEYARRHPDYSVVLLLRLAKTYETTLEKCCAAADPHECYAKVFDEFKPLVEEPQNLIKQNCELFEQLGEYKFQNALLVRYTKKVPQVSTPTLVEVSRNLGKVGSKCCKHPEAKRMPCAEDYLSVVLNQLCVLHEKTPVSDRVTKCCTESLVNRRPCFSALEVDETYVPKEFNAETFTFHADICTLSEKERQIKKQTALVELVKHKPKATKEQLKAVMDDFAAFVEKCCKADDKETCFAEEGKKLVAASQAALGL

Candida albicans [7] = assay: Antioxidant activity in Candida albicans assessed as decrease in GSH content measured at 5 mins by ellman method; assay type: functional; parameters: scale not given: the % may be the effect or the level left
Candida albicans [8] = assay: Induction of intracellular ROS production in Candida albicans assessed as fold increase in fluorescence intensity at 1 times MIC incubated for 6 hrs by DCFH-DA staining based analysis; assay type: functional
Candida albicans [9] = assay: Antifungal activity against Candida albicans ATCC 90023 assessed as inhibition of fungal growth incubated for 24 hrs by CLSI based microbroth dilution method; assay type: functional
Cell membrane [10] = assay: Induction of cell membrane damage in Candida albicans assessed as increase in fluorescent intensity at 0.5 to 8 times MIC measured for 6 hrs by PI staining based spectrofluorimeter analysis; assay type: subcellular
Candida tropicalis = assay: Antifungal activity against Candida tropicalis assessed as inhibition of fungal growth incubated for 24 hrs by CLSI based microbroth dilution method; assay type: functional
Candida albicans [11] = assay: Potency index, ratio of fluconazole MIC to test compound MIC for antifungal activity against Candida albicans assessed as inhibition of fungal growth incubated for 24 hrs by CLSI based microbroth dilution method; assay type: functional
Albumin [12] = target: T1, Albumin; assay: Binding affinity to human serum albumin assessed as Stem-Volmer quenching constant at 286K at pH 7.4 by fluorescence based analysis
Candida albicans [13] = assay: Antifungal activity against Candida albicans assessed as reduction in LDH activity by measuring fluorescence intensity measured for 6 hrs by alamar blue staining based analysis; assay type: functional, organism-based
Candida albicans [14] = assay: Antibiofilm activity against Candida albicans assessed as reduction in residual biomass measured for 24 hrs by crystal violet staining based; assay type: functional, organism-based; details: dose <= 8.0 µg/ml
Erythrocyte [15] = assay: Hemolytic activity in RBC (unknown origin) assessed as appearance of round surface at 128 times MIC measured for 6 hrs by microscopic analysis; assay type: toxicity, cell-based
Candida albicans [16] = assay: Induction of morphological changes in Candida albicans assessed as deformation of cell shape at 2 times MIC measured after 6 hrs by SEM analysis; assay type: functional, organism-based
Candida albicans [17] = assay: Antifungal activity against Candida albicans assessed as inhibition of fungal growth incubated for 24 hrs by CLSI based microbroth dilution method; assay type: functional
Candida albicans [18] = assay: Induction of intracellular ROS production in Candida albicans assessed as increase in green fluorescence intensity at 4 times MIC incubated for 6 hrs by fluorescence microscopic analysis; assay type: functional, organism-based
Candida albicans [19] = assay: Induction of intracellular ROS production in Candida albicans assessed as increase in fluorescence intensity incubated for 6 hrs by DCFH-DA staining based analysis; assay type: functional, organism-based
Candida albicans [20] = assay: Antioxidant activity in Candida albicans assessed as decrease in GSH content at 2 times MIC measured at 30 mins by ellman method; assay type: functional; parameters: scale not given: the % may be the effect or the level left; details: 0.5 h
Candida albicans [21] = assay: […] in Candida albicans assessed as decrease in pink fluorescence by resazurin staining based analysis; assay type: functional, organism-based
Calf thymus DNA [22] = assay: Induction of DNA cleavage in calf thymus DNA at 0.5 mM in presence of Zn2+ by agarose gel electrophoresis analysis; assay type: nucleic-acid assay; details: Bos taurus
Candida albicans [23] = assay: Induction of morphological changes in Candida albicans assessed as appearance of regular continuous surface by SEM analysis; assay type: functional, organism-based
Calf thymus DNA [24] = assay: Binding affinity to calf thymus DNA assessed as DNA-compound complex formation by measuring hyperchromism upto 7 mM by UV-Vis absorption spectra analysis; assay type: nucleic-acid assay; details: Bos taurus
Candida albicans [25] = assay: Induction of morphological changes in Candida albicans assessed as appearance of atrophied surface at 2 times MIC measured after 6 hrs by SEM analysis; assay type: functional, organism-based
L02 = assay: Cytotoxicity against human L02 cells assessed as effect on cell growth incubated for 24 to 48 hrs by MTT assay; assay type: toxicity, cell-based; details: time 24-48 hrs
Candida albicans [26] = assay: Antifungal activity against Candida albicans at 4 times MIC measured within 10 hrs by time kill assay; assay type: functional, organism-based
Candida albicans [27] = assay: Induction of intracellular ROS production in Candida albicans assessed as fold increase in fluorescence intensity at 4 to 128 times MIC incubated for 6 hrs by DCFH-DA staining based analysis; assay type: functional, organism-based
Calf thymus DNA [28] = assay: Binding affinity to calf thymus DNA assessed as change in red shift by measuring hypochromism upto 7 mM by UV-Vis absorption spectra analysis; assay type: nucleic-acid assay; details: Bos taurus
Cell membrane [29] = assay: Induction of cytoplasmic membrane depolarization in Candida albicans assessed as increase in fluorescence intensity at 4 times MIC measured for 30 mins by DiSC3-5 dye based fluorescence method; assay type: cell membranes
Cell membrane [30] = assay: Induction of cell membrane damage in Candida albicans assessed as increase in red fluorescent intensity at 4 to 8 times MIC measured for 6 hrs by PI staining based spectrofluorimeter analysis
[31] = Hemolytic activity in RBC (unknown origin) assessed as hemolysis rate 128 times MIC measured for 6 hrs by double dilution method; assay type: toxicity, cell-based, Erythrocyte; details: red blood cells (erythrocytes), read-out: Activity
Aspergillus fumigatus = assay: Antifungal activity against Aspergillus fumigatus assessed as inhibition of fungal growth incubated for 24 hrs by CLSI based microbroth dilution method; assay type: functional
Candida parapsilosis = assay: Antifungal activity against Candida parapsilosis ATCC 22019 assessed as inhibition of fungal growth incubated for 24 hrs by CLSI based microbroth dilution method; assay type: functional; details: Lodderomyces parapsilosis
Calf thymus DNA [32] = assay: Induction of DNA cleavage in calf thymus DNA at 0.05 to 0.5 mM in presence of Cu2+ by agarose gel electrophoresis analysis; assay type: nucleic-acid assay; details: Bos taurus; dose 0.05-0.5 mM
Candida albicans [33] = assay: Antibiofilm activity against Candida albicans assessed as inhibition of biofilm formation at 0.5 to 8 microg/ml measured for 24 hrs by crystal violet staining based; assay type: functional; details: dose 0.5-8 µg/ml, at 0.5 to 8 µg/mL
Albumin [34] = target: T1, Albumin; assay: Binding affinity to human serum albumin assessed as Stem-Volmer quenching constant at 298K at pH 7.4 by fluorescence based analysis
Calf thymus DNA [35] = assay: Induction of DNA cleavage in calf thymus DNA at 0.05 to 0.5 mM in presence of Zn2+ by agarose gel electrophoresis analysis; assay type: nucleic-acid assay; details: Bos taurus; dose 0.05-0.5 mM
Calf thymus DNA [36] = assay: Binding affinity to calf thymus DNA assessed as binding constant by UV-Vis absorption spectra analysis; assay type: nucleic-acid assay; details: Bos taurus
Calf thymus DNA [37] = assay: Induction of DNA cleavage in calf thymus DNA assessed as change in DNA band formation at 0.05 to 0.5 mM by agarose gel electrophoresis analysis; assay type: nucleic-acid assay; details: Bos taurus; dose 0.05-0.5 mM
Candida albicans [38] = assay: Induction of morphological changes in Candida albicans assessed as appearance of dented surface at 2 times MIC measured after 6 hrs by SEM analysis; assay type: functional, organism-based
Candida albicans [39] = assay: Antifungal activity against Candida albicans assessed as reduction in LDH activity by measuring fluorescence intensity at 8 times MIC measured for 6 hrs by alamar blue staining based analysis; assay type: functional; parameters: scale not given: the % may be the effect or the level left
Calf thymus DNA [40] = assay: Binding affinity to calf thymus DNA assessed as decrease in fluorescence intensity by acridine orange dye based by UV-Vis absorption spectra analysis; assay type: nucleic-acid assay; details: Bos taurus
Cell membrane [41] = assay: Induction of cell membrane potential loss in Candida albicans assessed as change in fluorescence intensity at 4 times MIC measured for 30 mins by DiSC3-5 dye based fluorescence method; assay type: subcellular
Calf thymus DNA [42] = assay: Induction of DNA cleavage in calf thymus DNA at 0.5 mM in presence of Cu2+ by agarose gel electrophoresis analysis; assay type: nucleic-acid assay; details: Bos taurus
Candida albicans [43] = assay: Antioxidant activity in Candida albicans assessed as decrease in GSH content at 1 times MIC measured at 30 mins by ellman method; assay type: functional; parameters: scale not given: the % may be the effect or the level left; details: 0.5 h

Compound: O=C1c2cccc3c(N/N=C/c4ccc([N+](=O)[O-])o4)ccc(c23)C(=O)N1CCO
- Activity (Candida albicans [1]): Active
- Activity (Candida albicans [2]): Active
- Activity (Candida albicans [3]): Active
- Activity (Candida albicans [4]): Dose-Dependent Effect
- Activity (Erythrocyte [5]): Non-Toxic
- KSV (Albumin [6]): 8.82 10^4L/mol
- Activity (Candida albicans [7]): 70%
- fold change (FC) (Candida albicans [8]): 2.5
- MIC (Candida albicans [9]): 2 µM (≈ 0.789 µg/mL)
- Activity (Cell membrane [10]): Active
- MIC (Candida tropicalis): 2 µM (≈ 0.789 µg/mL)
- Ratio (Candida albicans [11]): 13
- KSV (Albumin [12]): 12.6 10^4L/mol
- Activity (Candida albicans [13]): Dose-Dependent Effect
- Activity (Candida albicans [14]): Dose-Dependent Effect
- Activity (Erythrocyte [15]): Non-Toxic
- Activity (Candida albicans [16]): Active
- MIC (Candida albicans [17]): 1 µM (≈ 0.394 µg/mL)
- Activity (Candida albicans [18]): Active
- Activity (Candida albicans [19]): Dose-Dependent Effect
- Activity (Candida albicans [20]): 40%
- Activity (Candida albicans [21]): Dose-Dependent Effect
- Activity (Calf thymus DNA [22]): inactive
- Activity (Candida albicans [23]): Active
- Activity (Calf thymus DNA [24]): Active
- Activity (Candida albicans [25]): Active
- Activity (L02): Non-Toxic
- Activity (Candida albicans [26]): Active
- Activity (Candida albicans [27]): Active
- Activity (Calf thymus DNA [28]): Active
- Activity (Cell membrane [29]): inactive
- Activity (Cell membrane [30]): Active
- hemolysis at 6 h, 128 times MIC [31]: < 5%
- MIC (Aspergillus fumigatus): 4 µM (≈ 1.58 µg/mL)
- MIC (Candida parapsilosis): 4 µM (≈ 1.58 µg/mL)
- Activity (Calf thymus DNA [32]): inactive
- inhibition (INH) (Candida albicans [33]): 22%
- KSV (Albumin [34]): 9.34 10^4L/mol
- Activity (Calf thymus DNA [35]): inactive
- K (Calf thymus DNA [36]): 2.4 10^4L/mol
- Activity (Calf thymus DNA [37]): inactive
- Activity (Candida albicans [38]): Active
- Activity (Candida albicans [39]): <55%
- Activity (Calf thymus DNA [40]): Active
- Activity (Cell membrane [41]): inactive
- Activity (Calf thymus DNA [42]): inactive
- Activity (Candida albicans [43]): 50%
